Measurements from PMC9544090, “BioWF: A Naturally‐Fused, Di‐Domain Biocatalyst from Biotin Biosynthesis Displays an Unexpectedly Broad Substrate Scope” (Chembiochem, 2022).

Key:
CaBioWF [1] = conditions: ATP 1 mM, CoASH 1 mM, MgCl2 5 mM, pH 8, 30 °C, 5 h; mutant mass 68567 Da printed, so tag probably kept
CaBioWF [2] = molecular target: T1, CaBioWF (Corynebacterium amycolatum, UniProt E2MUP3); experiment: UV-Vis titration, PLP ketoenamine peak at […] nm, hyperbolic fit; assay type: binding
T1 construct: full-length natural di-domain fusion; synthetic gene in pET-28a, E. coli BL21(DE3); His tag removed by TEV; homodimer by SEC

O=C(O)CCCCCC(=O)O = experiment: purified protein; conditions: BioW domain, CoASH 1 mM, ATP 1 mM, MgCl2 10 mM, pH 8, 30 °C

Sequence of CaBioWF (DOC9544090_1 entry or part of it F192Y): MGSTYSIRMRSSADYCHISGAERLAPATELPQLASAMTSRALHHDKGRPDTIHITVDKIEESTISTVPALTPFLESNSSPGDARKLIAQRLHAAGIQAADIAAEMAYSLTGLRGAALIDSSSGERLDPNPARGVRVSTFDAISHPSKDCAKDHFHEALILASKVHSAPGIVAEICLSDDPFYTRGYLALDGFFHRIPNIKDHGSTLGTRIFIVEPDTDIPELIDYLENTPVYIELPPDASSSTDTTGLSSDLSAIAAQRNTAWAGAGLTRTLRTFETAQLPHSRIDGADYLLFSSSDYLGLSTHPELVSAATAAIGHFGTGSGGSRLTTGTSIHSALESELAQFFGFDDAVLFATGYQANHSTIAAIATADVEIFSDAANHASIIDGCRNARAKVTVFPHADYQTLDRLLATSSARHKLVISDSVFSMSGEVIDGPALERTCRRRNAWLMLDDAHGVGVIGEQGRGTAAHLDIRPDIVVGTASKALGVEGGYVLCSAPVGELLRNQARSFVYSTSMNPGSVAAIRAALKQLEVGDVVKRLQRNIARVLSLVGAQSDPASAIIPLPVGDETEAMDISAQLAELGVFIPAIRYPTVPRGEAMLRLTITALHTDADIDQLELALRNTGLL

With `O=C(O)CCCCCC(=O)O` [DC7, pimelic acid] the “HPLC of acyl-CoA product, 260 nm” value (CaBioWF [1]) was “acyl‐CoA product formation was only observed for the natural DC7 pimelic acid substrate”.

For `NCC(=O)O` [Gly], the Kd (CaBioWF [2]) was 16.1 ± 1.95 mM.

Work on `C[C@H](N)C(=O)O` [ʟ‐Ala] yielded a Kd (CaBioWF [2]) of 1.83 ± 0.25 mM.

“CaBioWF (Corynebacterium amycolatum SK46)” showed a Km (O=C(O)CCCCCC(=O)O) of 58.6 ± 3 µM and a kcat (O=C(O)CCCCCC(=O)O) of 0.21 s⁻¹.
